Columns and labels:
Assay type in all cases: cell-based, human
C8161 cells [1] = experiment: MICS (Membrane Invasion Culture System) invasion assay; settings: C8161, ALK 4/5/7 inhibitor
Method: (A) Invasion of C8161 cells following culture on unconditioned Matrigel (Control) or Matrigel preconditioned by either H1 or HSF-6 hESCs was calculated as a percentage of cells able to invade through a defined matrix (collagen IV, laminin, and gelatin)-coated membrane during a 24 hour period using the MICS (Membrane Invasion Culture System) assay. Bars represent the mean, normalized, invasion indices±standard deviations. […] (B) In vivo tumor formation in a mouse injected with C8161 cells pre-exposed for 3 days to either a control matrix (Matrigel) or a matrix conditioned by hESCs (H9 CMTX) (n=21).
The aggressiveness of tumor cells is correlated with their ability to invade through the extracellular matrix; thus, the effect of hESC microenvironments on melanoma cell invasion was investigated.
The derivation and phenotypic characteristics of the human melanoma cell lines have been previously described. Seftor, et. al., 2002, Clin. Experim. Metastas. 19:233-246; Seftor, et. al., 2005 Cancer Res. 65:10164-10169. […] The cultures are determined to be free of mycoplasma contamination using a PCR-based assay (Roche). […]

Nodal = Nodal expression in C8161 cells (Western blot, real time RT-PCR); settings: C8161, ALK 4/5/7 inhibitor 1 μM, 10 μM
Method: A determination of the effects of H9 CMTX on Nodal expression in metastatic melanoma (C8161) and breast carcinoma (MDA-MB-231) cells was undertaken. […] Exposure to H9 CMTX similarly abrogates Nodal mRNA expression in the melanoma and breast carcinoma cells (FIG. 9C).
Protein lysates were prepared and quantified as previously described in Hess et al., 2001, Cancer Res. 61:3250-3255. Equal amounts of protein were separated by SDS-polyacrylamide gel electrophoresis under reducing conditions, and the resolved proteins were transferred onto Immobilon-P membranes (Millipore Corp., Bedford, Mass.). Membranes were blocked in 1% TBS, 0.1% Tween 20 (TBS-T) and 5% dry milk powder or 3% gelatin (for Nodal Westerns). Blots were incubated with anti-Nodal or anti-Lefty antibodies (Polyclonal rabbit anti-Nodal (H-110) 1:500 Santa Cruz Biotechnology, Santa Cruz, Calif.; Polyclonal goat anti-Lefty 1:500 R&D Systems, Minneapolis, Minn.), washed in TBS-T, and incubated with the appropriate horseradish peroxidase-labeled secondary antibody. Secondary antibodies were detected by enhanced chemiluminescence (Super Signal; Pierce, Rockford, Ill.) and exposure to autoradiography film (Molecular Technologies, St Louis, Mo.). Nodal protein was detected as two major bands at ˜48 and ˜35 kDa representing precursor and pro-Nodal respectively. Nodal often appeared as multiple bands, likely due to degradation of protein modifications. All experiments were done at least three times.
The derivation and phenotypic characteristics of the human melanoma cell lines have been previously described. Seftor, et. al., 2002, Clin. Experim. Metastas. 19:233-246; Seftor, et. al., 2005 Cancer Res. 65:10164-10169. The melanoma cell lines are maintained in RPMI 1640 medium (Invitrogen) supplemented with 10% fetal bovine serum (FBS, Gemini Bioproducts) and 0.1% gentamycin sulfate with the exception of C81-61 cells which are maintained in Ham's FIO medium supplemented with 15% FBS, 1X Mito+ (BD Bioscience) and gentamycin sulfate. […] The cultures are determined to be free of mycoplasma contamination using a PCR-based assay (Roche). […]

C8161 cells [2] = experiment: Vasculogenic mimicry and plasticity biomarkers in C8161 cells with ALK 4/5/7 inhibitor; settings: C8161, ALK 4/5/7 inhibitor
Method: (A) Western blot analyses of Nodal, phosphorylated SMAD-2, total SMAD 2/3, and Actin in C8161 cells 48 hours after administration of either vehicle or an ALK 4/5/7 inhibitor (SB431542, 1 μM, 10 μM). […] (B) Western blot analyses of Nodal, Tyrosinase and Actin in C8161 cells 24 hours after the administration of either vehicle or different concentrations of ALK inhibitor while (C) is a Western analyses for VE-Cadherin, Keratin 18 and Actin in C8161 cells cultured on 3-D collagen I matrices for 6 days in the presence of vehicle or different concentrations of ALK inhibitor.

Notch = experiment: Western blot analysis of Notch 1, 2 and 4 in C8161 cells; settings: C8161 treated with Nodal inhibitor
Source text: Western blot analysis of C8161 cells 72 hrs following the administration of siRNA. […] Western blot analysis of Notch 1, 2 and 4 in C8161 cells treated with the Nodal inhibitor SB431542.

In the case of NC(=O)c1ccc(-c2nc(-c3ccc4c(c3)OCO4)c(-c3ccccn3)[nH]2)cc1 [SB431542], the invasive ability (C8161 cells [1]) is reported as “reduction in invasive ability”, the “Nodal expression (Western blot)” value (Nodal) is reported as “down-regulation of Nodal” and the “expression of vasculogenic mimicry plasticity biomarkers (Western blot)” value (C8161 cells [2]) is reported as “reduction”. For the same molecule, the vasculogenic mimicry (C8161 cells [2]) was “abrogation of vasculogenic mimicry” and the “Notch expression (Western blot)” value (Notch) was “relatively unaffected”.

— patent US8106004B2, “Methods of inhibiting tumor cell aggressiveness using the microenvironment of human embryonic stem cells” (Children's Memorial Hospital, priority 2006, dated 2012)
